Results published in patent US11608335B2, “Somatostatin modulators and uses thereof” (CRINETICS PHARMACEUTICALS, INC., priority 2018, dated 2023).
Read-outs that look alike come from different tables or passages of the source.

Experiments:
[1] = target: human somatostatin receptor subtype 5 (Homo sapiens, UniProt P35346); assay: cAMP assay for SST5R (inhibition of cAMP via human SST5 receptor)
[2] = target: T1, human somatostatin receptor subtype 2 (Homo sapiens, UniProt P30874); assay: cAMP assay for SST2R (inhibition of cAMP via human SST2 receptor); format: cell-based; conditions: Table B, read-out: SST2 potency
T1 construct: expressed in transfected cells
T1 sequence (P30874 whole entry): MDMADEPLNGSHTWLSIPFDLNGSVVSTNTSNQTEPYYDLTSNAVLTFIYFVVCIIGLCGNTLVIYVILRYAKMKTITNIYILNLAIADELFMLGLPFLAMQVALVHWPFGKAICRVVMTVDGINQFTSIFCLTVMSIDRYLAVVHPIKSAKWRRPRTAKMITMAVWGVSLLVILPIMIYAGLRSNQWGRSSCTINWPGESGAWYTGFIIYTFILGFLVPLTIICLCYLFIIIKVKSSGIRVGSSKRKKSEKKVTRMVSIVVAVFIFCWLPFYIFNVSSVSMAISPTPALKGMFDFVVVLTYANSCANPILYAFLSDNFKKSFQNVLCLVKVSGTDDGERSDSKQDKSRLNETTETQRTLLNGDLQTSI
Text: cAMP Assay Protocol for SST2R:

[3] = read-out: SST5 potency, inhibition of cAMP via human SST5 receptor, Table B

human somatostatin receptor subtype 5, sequence (P35346 whole entry): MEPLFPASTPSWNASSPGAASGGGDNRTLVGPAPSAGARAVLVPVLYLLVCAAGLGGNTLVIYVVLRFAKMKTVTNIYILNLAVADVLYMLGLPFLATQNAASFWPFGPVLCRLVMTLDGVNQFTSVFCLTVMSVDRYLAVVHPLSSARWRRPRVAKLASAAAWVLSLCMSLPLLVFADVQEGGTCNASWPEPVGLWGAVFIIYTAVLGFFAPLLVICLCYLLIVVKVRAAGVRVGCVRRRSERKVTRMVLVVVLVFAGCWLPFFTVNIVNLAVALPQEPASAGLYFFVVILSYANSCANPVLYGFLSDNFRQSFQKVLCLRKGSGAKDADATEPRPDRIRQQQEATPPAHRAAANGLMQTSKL

Cc1c(F)ccc2nc(-c3cncc(-c4cc(F)cc(C#N)c4)c3N3CC[C@H](N)C3)[nH]c12 [Compound 2-86, 3-{4-[(3S)-3-aminopyrrolidin-1-yl]-5-(5-fluoro-4-methyl-1H-1,3-benzodiazol-2-yl)pyridin-3-yl}-5-fluorobenzonitrile]
EC50 [1]: < 10 nM
Fold selectivity for SST5 vs SST2 ([1]; SST5 over SST2, class symbols): ++ (++=100 to 499)
EC50 [1, 3]: < 10 nM
EC50 [2]: 100 to 1000 nM

Cc1cc(F)cc(-c2cncc(-c3nc4cccc(Cl)c4[nH]3)c2N2CCC(N)CC2)c1
EC50 [1]: 100 to 1000 nM
Fold selectivity for SST5 vs SST2 ([1]; SST5 over SST2, given as number (comparison compounds)): 0.0008
EC50 [2]: < 10 nM

Cc1cc(F)cc(-c2cncc(-c3nc4cc(C)ccc4[nH]3)c2N2CC(CN)C2)c1 [Compound 1-10, 1-{1-[3-(3-fluoro-5-methylphenyl)-5-(5-methyl-1H-1,3-benzodiazol-2-yl)pyridin-4-yl]azetidin-3-yl}methanamine]
EC50 [1]: < 10 nM
Fold selectivity for SST5 vs SST2 ([1]; SST5 over SST2, class symbols): +++ (+++=≥500)
EC50 [1, 3]: < 10 nM
EC50 [2]: > 1000 nM

CC1(N)CCN(c2c(-c3cc(F)cc(C(N)=O)c3)cncc2-c2nc3cccc(F)c3[nH]2)C1 (stereo not drawn) [Compound 2-20, 3-[4-(3-amino-3-methylpyrrolidin-1-yl)-5-(4-fluoro-1H-1,3-benzodiazol-2-yl)pyridin-3-yl]-5-fluorobenzamide]
EC50 [1]: < 10 nM
Fold selectivity for SST5 vs SST2 ([1]; SST5 over SST2, class symbols): +++ (+++=≥500)
EC50 [1, 3]: < 10 nM
EC50 [2]: 100 to 1000 nM

Cn1c(-c2cncc(-c3ccc(F)c(C#N)c3)c2N2CC[C@H](N)C2)nc2c(Cl)cccc21 [Compound 2-131, 5-{4-[(3S)-3-aminopyrrolidin-1-yl]-5-(4-chloro-1-methyl-1H-1,3-benzodiazol-2-yl)pyridin-3-yl}-2-fluorobenzonitrile]
EC50 [1]: 10 to 100 nM
Fold selectivity for SST5 vs SST2 ([1]; SST5 over SST2, class symbols): +++ (+++=≥500)
EC50 [1, 3]: 10 to 100 nM
EC50 [2]: > 1000 nM

CC1(N)CCN(c2c(-c3ccnc(C#N)c3)cncc2-c2nc3cccc(Cl)c3[nH]2)C1 (stereo not drawn) [Compound 2-157, 4-(3-amino-3-methylpyrrolidin-1-yl)-5-(4-chloro-1H-1,3-benzodiazol-2-yl)-[3,4′-bipyridine]-2′-carbonitrile]
EC50 [1]: < 10 nM
Fold selectivity for SST5 vs SST2 ([1]; SST5 over SST2, class symbols): +++ (+++=≥500)
EC50 [1, 3]: < 10 nM
EC50 [2]: 10 to 100 nM

N#Cc1cc(-c2cncc(-c3nc4cccc(C(F)(F)F)c4[nH]3)c2N2CC[C@H](N)C2)ccc1F [Compound 2-60, 5-{4-[(3S)-3-aminopyrrolidin-1-yl]-5-[4-(trifluoromethyl)-1H-1,3-benzodiazol-2-yl]pyridin-3-yl}-2-fluorobenzonitrile]
EC50 [1]: < 10 nM
Fold selectivity for SST5 vs SST2 ([1]; SST5 over SST2, class symbols): ++ (++=100 to 499)
EC50 [1, 3]: < 10 nM
EC50 [2]: 100 to 1000 nM

C[C@]1(N)CCN(c2c(-c3ccnc(C#N)c3)cncc2-c2nc3cccc(C(F)(F)F)c3[nH]2)C1 [Compound 2-175, 4-[(3S)-3-amino-3-methylpyrrolidin-1-yl]-5-[7-(trifluoromethyl)-1H-1,3-benzodiazol-2-yl]-[3,4′-bipyridine]-2′-carbonitrile]
EC50 [1]: < 10 nM
Fold selectivity for SST5 vs SST2 ([1]; SST5 over SST2, class symbols): +++ (+++=≥500)
EC50 [1, 3]: < 10 nM
EC50 [2]: 100 to 1000 nM

CC1(N)CCN(c2c(-c3cc(F)cc(Cl)c3)cncc2-c2nc3cccc(F)c3[nH]2)C1 (stereo not drawn) [Compound 2-4, 1-[3-(3-chloro-5-fluorophenyl)-5-(4-fluoro-1H-1,3-benzodiazol-2-yl)pyridin-4-yl]-3-methylpyrrolidin-3-amine]
EC50 [1]: < 10 nM
Fold selectivity for SST5 vs SST2 ([1]; SST5 over SST2, class symbols): ++ (++=100 to 499)
EC50 [1, 3]: < 10 nM
EC50 [2]: 10 to 100 nM

CC1(N)CCN(c2c(-c3cccc(OC(F)(F)F)c3)cncc2-c2nc3cccc(F)c3[nH]2)C1 (stereo not drawn) [Compound 2-10, 1-[3-(4-fluoro-1H-1,3-benzodiazol-2-yl)-5-[3-(trifluoromethoxy)phenyl]pyridin-4-yl]-3-methylpyrrolidin-3-amine]
EC50 [1]: < 10 nM
Fold selectivity for SST5 vs SST2 ([1]; SST5 over SST2, class symbols): +++ (+++=≥500)
EC50 [1, 3]: < 10 nM
EC50 [2]: 100 to 1000 nM

Cc1cccc(-c2cncc(-c3nc4cccc(C)c4[nH]3)c2N2CC[C@H](N)C2)c1 [Compound 2-146, (3S)-1-[3-(4-methyl-1H-1,3-benzodiazol-2-yl)-5-(3-methylphenyl)pyridin-4-yl]pyrrolidin-3-amine]
EC50 [1]: < 10 nM
Fold selectivity for SST5 vs SST2 ([1]; SST5 over SST2, class symbols): ++ (++=100 to 499)
EC50 [1, 3]: < 10 nM
EC50 [2]: 100 to 1000 nM

N#Cc1cc(F)cc(-c2cncc(-c3nc4c(F)ccc(F)c4[nH]3)c2N2CC[C@H](N)C2)c1 [Compound 2-38, 3-{4-[(3S)-3-aminopyrrolidin-1-yl]-5-(4,7-difluoro-1H-1,3-benzodiazol-2-yl)pyridin-3-yl}-5-fluorobenzonitrile]
EC50 [1]: < 10 nM
Fold selectivity for SST5 vs SST2 ([1]; SST5 over SST2, class symbols): +++ (+++=≥500)
EC50 [1, 3]: < 10 nM
EC50 [2]: 100 to 1000 nM

Cc1ccnc2nc(-c3cncc(-c4cccc(C#N)c4)c3N3CCC(C)(N)C3)[nH]c12 (stereo not drawn) [Compound 2-122, 3-[4-(3-amino-3-methylpyrrolidin-1-yl)-5-{7-methyl-1H-imidazo[4,5-b]pyridin-2-yl}pyridin-3-yl]benzonitrile]
EC50 [1]: < 10 nM
Fold selectivity for SST5 vs SST2 ([1]; SST5 over SST2, class symbols): ++ (++=100 to 499)
EC50 [1, 3]: < 10 nM
EC50 [2]: 100 to 1000 nM

N#Cc1cccc(-c2cncc(-c3nc4cccc(Br)c4[nH]3)c2N2CC[C@H](N)C2)c1 [Compound 2-57, 3-{4-[(3S)-3-aminopyrrolidin-1-yl]-5-(4-bromo-1H-1,3-benzodiazol-2-yl)pyridin-3-yl}benzonitrile]
EC50 [1]: < 10 nM
Fold selectivity for SST5 vs SST2 ([1]; SST5 over SST2, class symbols): +++ (+++=≥500)
EC50 [1, 3]: < 10 nM
EC50 [2]: 100 to 1000 nM

N#Cc1cc(-c2cncc(-c3nc4ccc(F)c(F)c4[nH]3)c2N2CC[C@H](N)C2)ccc1F [Compound 2-52, 5-{4-[(3S)-3-aminopyrrolidin-1-yl]-5-(4,5-difluoro-1H-1,3-benzodiazol-2-yl)pyridin-3-yl}-2-fluorobenzonitrile]
EC50 [1]: < 10 nM
Fold selectivity for SST5 vs SST2 ([1]; SST5 over SST2, class symbols): +++ (+++=≥500)
EC50 [1, 3]: < 10 nM
EC50 [2]: 100 to 1000 nM

N#Cc1cccc(-c2cncc(-c3nc4cccc(F)c4[nH]3)c2N2CC[C@H](N)C2)c1 [Compound 2-7, 3-{4-[(3S)-3-aminopyrrolidin-1-yl]-5-(4-fluoro-1H-1,3-benzodiazol-2-yl)pyridin-3-yl}benzonitrile]
EC50 [1]: < 10 nM
Fold selectivity for SST5 vs SST2 ([1]; SST5 over SST2, class symbols): +++ (+++=≥500)
EC50 [1, 3]: < 10 nM
EC50 [2]: 100 to 1000 nM

Cc1cc(F)cc(-c2cncc(-c3nc4c(F)ccc(F)c4[nH]3)c2N2CC(CN)C2)c1 [Compound 1-37, 1-{1-[3-(4,7-difluoro-1H-1,3-benzodiazol-2-yl)-5-(3-fluoro-5-methylphenyl)pyridin-4-yl]azetidin-3-yl}methanamine]
EC50 [1]: < 10 nM
Fold selectivity for SST5 vs SST2 ([1]; SST5 over SST2, class symbols): +++ (+++=≥500)
EC50 [1, 3]: < 10 nM
EC50 [2]: > 1000 nM

Cc1cc(F)cc(-c2cncc(-c3nc4cccc(Cl)c4[nH]3)c2N2CC[C@H](N)C2)c1 [Compound 2-197, (3S)-1-[3-(7-chloro-1H-1,3-benzodiazol-2-yl)-5-(3-fluoro-5-methylphenyl)pyridin-4-yl]pyrrolidin-3-amine]
EC50 [1]: < 10 nM
Fold selectivity for SST5 vs SST2 ([1]; SST5 over SST2, class symbols): ++ (++=100 to 499)
EC50 [1, 3]: < 10 nM
EC50 [2]: 100 to 1000 nM

CC1(N)CCN(c2c(-c3cc(F)cc(C#N)c3)cncc2-c2nc3cccc(F)c3[nH]2)C1 (stereo not drawn) [Compound 2-6, 3-[4-(3-amino-3-methylpyrrolidin-1-yl)-5-(4-fluoro-1H-1,3-benzodiazol-2-yl)pyridin-3-yl]-5-fluorobenzonitrile]
EC50 [1]: < 10 nM
Fold selectivity for SST5 vs SST2 ([1]; SST5 over SST2, class symbols): +++ (+++=≥500)
EC50 [1, 3]: < 10 nM
EC50 [2]: 100 to 1000 nM

N#Cc1cc(-c2cncc(-c3nc4cccc(F)c4[nH]3)c2N2CC[C@H](N)C2)ccc1F [Compound 2-23, 5-{4-[(3S)-3-aminopyrrolidin-1-yl]-5-(4-fluoro-1H-1,3-benzodiazol-2-yl)pyridin-3-yl}-2-fluorobenzonitrile]
EC50 [1]: < 10 nM
Fold selectivity for SST5 vs SST2 ([1]; SST5 over SST2, class symbols): +++ (+++=≥500)
EC50 [1, 3]: < 10 nM
EC50 [2]: 100 to 1000 nM

Cc1cc(F)cc2nc(-c3cncc(-c4cc(F)cc(C#N)c4)c3N3CC[C@H](N)C3)[nH]c12 [Compound 2-79, 3-{4-[(3S)-3-aminopyrrolidin-1-yl]-5-(6-fluoro-4-methyl-1H-1,3-benzodiazol-2-yl)pyridin-3-yl}-5-fluorobenzonitrile]
EC50 [1]: < 10 nM
Fold selectivity for SST5 vs SST2 ([1]; SST5 over SST2, class symbols): ++ (++=100 to 499)
EC50 [1, 3]: < 10 nM
EC50 [2]: 100 to 1000 nM

Cc1cncc2nc(-c3cncc(-c4ccc(F)c(C#N)c4)c3N3CCC(C)(N)C3)[nH]c12 (stereo not drawn) [Compound 2-149, 5-[4-(3-amino-3-methylpyrrolidin-1-yl)-5-{7-methyl-3H-imidazo[4,5-c]pyridin-2-yl}pyridin-3-yl]-2-fluorobenzonitrile]
EC50 [1]: < 10 nM
Fold selectivity for SST5 vs SST2 ([1]; SST5 over SST2, class symbols): ++ (++=100 to 499)
EC50 [1, 3]: < 10 nM
EC50 [2]: 100 to 1000 nM

Cc1cc(F)cc(-c2cncc(-c3nc4cccc(C)c4[nH]3)c2N2CC(CN)C2)c1 [Compound 1-9, 1-{1-[3-(3-fluoro-5-methylphenyl)-5-(4-methyl-1H-1,3-benzodiazol-2-yl)pyridin-4-yl]azetidin-3-yl}methanamine]
EC50 [1]: < 10 nM
Fold selectivity for SST5 vs SST2 ([1]; SST5 over SST2, class symbols): +++ (+++=≥500)
EC50 [1, 3]: < 10 nM
EC50 [2]: > 1000 nM

CCn1c(-c2cncc(-c3ccc(F)c(C#N)c3)c2N2CC[C@H](N)C2)nc2c(F)cccc21 [Compound 2-142, 5-{4-[(3S)-3-aminopyrrolidin-1-yl]-5-(1-ethyl-4-fluoro-1H-1,3-benzodiazol-2-yl)pyridin-3-yl}-2-fluorobenzonitrile]
EC50 [1]: < 10 nM
Fold selectivity for SST5 vs SST2 ([1]; SST5 over SST2, class symbols): +++ (+++=≥500)
EC50 [1, 3]: < 10 nM
EC50 [2]: > 1000 nM

Cc1ccnc2nc(-c3cncc(-c4cc(F)cc(C#N)c4)c3N3CCC(C)(N)C3)[nH]c12 (stereo not drawn) [Compound 2-108, 3-[4-(3-amino-3-methylpyrrolidin-1-yl)-5-{7-methyl-1H-imidazo[4,5-b]pyridin-2-yl}pyridin-3-yl]-5-fluorobenzonitrile]
EC50 [1]: < 10 nM
Fold selectivity for SST5 vs SST2 ([1]; SST5 over SST2, class symbols): ++ (++=100 to 499)
EC50 [1, 3]: < 10 nM
EC50 [2]: 100 to 1000 nM
